Five compounds from patent publication US8420633B2 (Hoffmann-La Roche Inc., priority 2010, dated 2013) can be followed below.

The target of this assay is T1, human V1a receptor (Homo sapiens, UniProt P37288).
T1 construct: expressed in transfected cells; host or cells: HEK293 cells, transiently transfected; membranes prepared
The experiment in a line: human V1a receptor binding (3H-Vasopressin SPA, HEK293 membranes). Conditions: 3H-Vasopressin displacement, membranes of HEK293 cells transiently transfected with human V1a; Ki from IC50 by Cheng-Prussoff; read-out: pKi (hV1a) (converted). Here is the method:
The human V1a receptor was cloned by RT-PCR from total human liver RNA. The coding sequence was subcloned in an expression vector after sequencing to confirm the identity of the amplified sequence. […] Cell membranes were prepared from HEK293 cells transiently transfected with the expression vector and grown in 20 liter fermenters with the following protocol.
50 g of cells are resuspended in 30 ml freshly prepared ice cold Lysis buffer (50 mM HEPES, 1 mM EDTA, 10 mM magnesium dichloride adjusted to pH=7.4+complete cocktail of protease inhibitor (Roche Diagnostics)). Homogenized with Polytron for 1 min and sonicated on ice for 2×2 minutes at 80% intensity (Vibracell sonicator). The preparation is centrifuged 20 min at 500 g at 4° C., the pellet is discarded and the supernatant centrifuged 1 hour at 43,000 g at 4° C. (19,000 rpm). The pellet is resuspended in 12.5 ml Lysis buffer+12.5 ml sucrose 20% and homogenized using a Polytron for 1-2 min. The protein concentration is determined by the Bradford method and aliquots are stored at −80° C. until use. For binding studies 60 mg Yttrium silicate SPA beads (Amersham®) are mixed with an aliquot of membrane in binding buffer (50 mM Tris, 120 mM sodium chloride, 5 mM potassium chloride, 2 mM calcium dichloride, 10 mM magnesium dichloride) for 15 minutes with mixing. 50 μl of bead/membrane mixture is then added to each well of a 96 well plate, followed by 50 μl of 4 nM 3H-Vasopressin (American Radiolabeled Chemicals). For total binding measurement 100 μl of binding buffer are added to the respective wells, for non-specific binding 100 μl of 8.4 mM cold vasopressin and for compound testing 100 μl of a serial dilution of each compound in 2% dimethyl sulfoxide. The plate is incubated 1 h at room temperature, centrifuged 1 min at 1000 g and counted on a Packard Top-Count. Non-specific binding counts are subtracted from each well and data is normalized to the maximum specific binding set at 100%. To calculate an IC50 the curve is fitted using a non-linear regression model (XLfit) and the Ki is calculated using the Cheng-Prussoff equation.

T1 sequence (P37288 whole entry): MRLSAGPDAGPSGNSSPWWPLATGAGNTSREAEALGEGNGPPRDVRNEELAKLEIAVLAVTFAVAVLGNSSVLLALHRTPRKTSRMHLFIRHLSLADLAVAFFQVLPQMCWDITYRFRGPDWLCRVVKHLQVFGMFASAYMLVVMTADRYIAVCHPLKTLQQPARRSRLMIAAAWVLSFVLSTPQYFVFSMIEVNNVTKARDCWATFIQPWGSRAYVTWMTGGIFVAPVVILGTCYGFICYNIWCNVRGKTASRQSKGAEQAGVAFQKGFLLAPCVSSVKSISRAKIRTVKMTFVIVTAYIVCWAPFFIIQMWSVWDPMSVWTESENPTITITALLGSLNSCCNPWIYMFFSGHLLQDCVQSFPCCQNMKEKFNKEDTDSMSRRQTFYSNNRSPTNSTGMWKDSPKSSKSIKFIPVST

As to `CS(=O)(=O)N1Cc2cc(Cl)ccc2-n2c(nnc2[C@H]2CC[C@H](c3ccccc3)CC2)C1` [Example 29, trans-8-Chloro-5-methanesulfonyl-1-(4-phenyl-cyclohexyl)-5,6-dihydro-4H-2,3,5,10b-tetraaza-benzo[e]azulene], the Ki is 1.82 nM.

Take `CC(C)N1Cc2cc(Cl)ccc2-n2c(nnc2[C@H]2CC[C@H](c3ccccc3)CC2)C1` [Example 30, trans-8-Chloro-5-isopropyl-1-(4-phenyl-cyclohexyl)-5,6-dihydro-4H-2,3,5,10b-tetraaza-benzo[e]azulene]: the Ki is 1.91 nM.

Take `Clc1ccc2c(c1)CN(Cc1ccccn1)Cc1nnc([C@H]3CC[C@H](c4ccccc4)CC3)n1-2` [Example 31, trans-8-Chloro-1-(4-phenyl-cyclohexyl)-5-pyridin-2-ylmethyl-5,6-dihydro-4H-2,3,5,10b-tetraaza-benzo[e]azulene]: the Ki was 2.4 nM.

Take `OCCN1Cc2cc(Cl)ccc2-n2c(nnc2[C@H]2CC[C@H](c3ccccc3)CC2)C1` [Example 32, trans-2-[8-Chloro-1-(4-phenyl-cyclohexyl)-4H,6H-2,3,5,10b-tetraaza-benzo[e]azulen-5-yl]-ethanol]: the Ki was 1.41 nM.

As to `Clc1ccc2c(c1)CN(c1ccccn1)Cc1nnc([C@H]3CC[C@H](c4ccccc4)CC3)n1-2` [Example 33, trans-8-Chloro-1-(4-phenyl-cyclohexyl)-5-pyridin-2-yl-5,6-dihydro-4H-2,3,5,10b-tetraaza-benzo[e]azulene], the Ki was 8.91 nM.
